Test results reported in US10322123B2, “Compound for anti-cancer therapy that acts by targeting GOF mutant P53 and stimulates P73 to restore the P53 pathway signaling” (The Penn State Research Foundation, priority 2014, dated 2019).

Legend:
[1] = molecular target: T1, wild-type p53 protein epitope (Homo sapiens, UniProt P04637, R175H); assay: Wild-type p53 conformation with Pab1620 antibody; assay type: cell-based; details: RXF393 cells, 24 hr
T1 construct: endogenous in cells; host or cells: RXF393
Experimental: Five hundred micrograms of cell lysate were incubated with 2 μg of antibody overnight at 4° C. Then, 25 μl of protein A-Sepharose beads were added to the lysates. The immunoprecipitated proteins were eluted from protein A-Sepharose beads by boiling with 2× sample buffer and subjected to SDS-PAGE.

[2] = system: DLD-1 cells; assay: CellTiter-Glo cell viability, DLD-1 with Ad-p73 or p73 knock-down; assay type: cell-based, human; details: for Combination index (CI): DLD-1
Experimental: Cells at a concentration of 5000 cells/well in 96-well plates were treated with NSC59984 or other drugs. At seventy-two hours after treatment, cells were mixed with an equal volume of CellTiter-Glo reagents (Promega, Madison, Wis.), following the manufacturer's protocol, and bioluminescence imaging was measured using the IVIS imager.
Cells were infected with retrovirus containing the pSIREN-REtrpcQ retroviral vector recombinant with TAp73 RNAi. Cells were cultured with blasticidin for several weeks, and blasticidin-resistant clones were selected. Knock-down of p73 was detected by measuring p73 protein levels by Western blot with anti-p73 antibody (Bethyl laboratories Inc. USA).
Cells were infected with an adenovirus that expresses p73-beta (Ad-p73) or wild type p53 (Ad-p53) and cultured for 24 hr, as previously described (Huang C, et al., Cancer Biol Ther 2009; 8: 2186-93). Then, the infected cells were cultured in fresh medium and subjected to different treatments.
All results were obtained from triplicate experiments, unless other indicated. Statistical analyses were performed using PRISM4 Software (GraphPad Software, Inc., San Diego, Calif., USA), ANOVA and Student's t-test. Statistical significances were determined by p<0.05. Combination indices were calculated using the Chou-Talalay method with CalcuSyn software (biosoft).

[3] = system: p21, Puma and Noxa mRNA; assay: qRT-PCR of p53 target gene mRNA; assay type: cell-based, human
From the text: (§1) Total RNA was isolated from cells using RNeasy mini kit (Qiagen, USA) by the recommended protocol. Reverse transcription used SuperScript II first-strand synthesis system (Invitrogen, USA) with random primers. qRT-PCR reactions used SYBR green master mix with the Real-Time PCR Detection systems (Bio-Rad, USA). Primers for qRT-PCR are (forward) 5′-[…]-3′ (SEQ ID NO: 1) and (reverse) 5′-[…]-3′ (SEQ ID NO: 2) for p53, (forward) 5′-TGTCCGTCAGAACCCATG-3′ (SEQ ID NO: 3) and (reverse) 5′-[…]-3′ (SEQ ID NO: 4) for p21, (forward) 5′-[…]-3′ (SEQ ID NO: 5) and (reverse) 5′-[…]-3′ (SEQ ID NO: 6) for Puma, (forward) 5′-[…]-3′ (SEQ ID NO: 7) and (reverse) 5′-[…]-3′ (SEQ ID NO: 8) for Noxa, (forward) 5′-CTGGGCTACACTGAGCACC-3′ (SEQ ID NO: 9) and (reverse) 5′-[…]-3′ (SEQ ID NO: 10) for Gapdh. Target gene expression levels were normalized with Gapdh.

[4] = system: mutant p53; assay type: cell-based, human
Experimental: (§2) The primary antibodies indicated in the figures were incubated with the transferred PVDF in blocking buffer at 4° C. overnight. Antibody binding was detected on PVDF with appropriate IRDye-secondary antibodies (LI-COR Biosciences, USA) by the ODYSSEY infrared imaging system.

[5] = system: mutant p53 mRNA; assay: Mutant p53 mRNA qRT-PCR; assay type: cell-based, human; details: SW480 cells, 3 hr or 16 hr, compared to DMSO control
From the text: as §1

[6] = system: wild-type p53; assay: Wild-type p53 protein level Western blot; assay type: cell-based, human; details: 8 hr
Experimental: as §2, with “Proteins were extracted from cells and electrophoresed through 4-12% SDS-PAGE then transferred to PVDF membranes. The” for “The”

[7] = Body weight and toxicity in xenograft mice; assay type: in vivo; details: 45 mg/kg i.p. every 5 days
Experimental: CRL nude mice (female, 4-6 weeks old) were inoculated s.c. in the opposite flanks with 5 million DLD-1 or p73 knock-down DLD-1 cells in an equal volume of martrigel. Treatment with NSC59984 (i.p. injection) was initiated when the tumor masses reached a size of 3-5 mm. NSC59984 (45 mg/kg) was injected by i.p. route every 5 days. Fifteen days after treatment, the mice were euthanized using an institutional animal care and use committee-approved animal protocol.

[8] = system: Hop92 and SW480 cells; assay: Flow cytometry sub-G1 DNA content; assay type: cell-based, human; details: 25 μM and 50 μM, 8 hours
Experimental: Cells were treated with NSC59984 or other drugs. […] The samples were then subjected to analysis by an Epics Elite flow cytometer to measure the DNA content of the stained cells.

CN1CCN(C(=O)/C=C/c2ccc([N+](=O)[O-])o2)CC1 [NSC59984, (E)-1-(4-methylpiperazin-1-yl)-3-(5-nitrofuran-2-yl)prop-2-en-1-one]
immunohistochemistry staining with Pab1620 [1]: no staining
immunoprecipitation of p53 protein with Pab1620 antibody [1]: no p53 protein bound
Combination index (CI) ([2]; Ad-P73 dilution 1:1k, NSC59984 12 μM): 0.273
Combination index (CI) ([2]; Ad-P73 dilution 1:1k, NSC59984 25 μM): 0.12
Combination index (CI) ([2]; Ad-P73 dilution 1:1k, NSC59984 50 μM): 0.033
Combination index (CI) ([2]; Ad-P73 dilution 1:2k, NSC59984 12 μM): 0.357
Combination index (CI) ([2]; Ad-P73 dilution 1:2k, NSC59984 25 μM): 0.127
Combination index (CI) ([2]; Ad-P73 dilution 1:2k, NSC59984 50 μM): 0.039
Combination index (CI) ([2]; Ad-P73 dilution 1:4k, NSC59984 12 μM): 0.303
Combination index (CI) ([2]; Ad-P73 dilution 1:4k, NSC59984 25 μM): 0.121
Combination index (CI) ([2]; Ad-P73 dilution 1:4k, NSC59984 50 μM): 0.037
Combination index (CI) ([2]; Ad-P73 dilution 1:8k, NSC59984 12 μM): 0.319
Combination index (CI) ([2]; Ad-P73 dilution 1:8k, NSC59984 25 μM): 0.115
Combination index (CI) ([2]; Ad-P73 dilution 1:8k, NSC59984 50 μM): 0.036
Combination index (CI) ([2]; Ad-P73 dilution 1:16k, NSC59984 12 μM): 0.239
Combination index (CI) ([2]; Ad-P73 dilution 1:16k, NSC59984 25 μM): 0.098
Combination index (CI) ([2]; Ad-P73 dilution 1:16k, NSC59984 50 μM): 0.027
Combination index (CI) ([2]; Ad-P73 dilution 1:32k, NSC59984 12 μM): 0.636
Combination index (CI) ([2]; Ad-P73 dilution 1:32k, NSC59984 25 μM): 0.282
Combination index (CI) ([2]; Ad-P73 dilution 1:32k, NSC59984 50 μM): 0.078
cell viability, combination with exogenous p73 ([2]; DLD-1 cells infected with Ad-p73): synergized
cell viability ([2]; p73 knock-down DLD-1 cells compared with DLD-1 cells, 72 hr): higher
Noxa mRNA ([3]; 25 μM in HCT116 and 12 μM in p53-null HCT116 cells): slightly increased
Puma and p21 mRNA level ([3]; HCT116 and p53-null HCT116 cells): not up-regulated
mRNA levels of p21, Noxa and Puma ([3]; SW480 and DLD-1 cells, 3 hours, dose-dependent): significantly increased
total mutant p53 protein degraded ([4]; DLD-1 and RXF393 cells, 50 μM): 25-50%
mutant p53 protein level ([4]; SW480, DLD-1, Hop92 and RXF393 cells, 8 hr, dose-dependent): down-regulated
p53 mRNA [5]: not decreased
wild-type p53 protein ([6]; HCT116 cancer cells, 25 and 50 μM): up-regulated
wild-type p53 protein ([6]; MRC-5 normal cells, 50 μM): up-regulated
mouse body weights [7]: did not cause an obvious change
toxic effect in mice ([7]; tested dose): no overt toxic effect
subG1 DNA-content [8]: nor subG1 DNA-content was increased
